From patent US20240197888A1, “SOS1 PROTEIN DEGRADERS, PHARMACEUTICAL COMPOSITIONS THEREOF, AND THEIR THERAPEUTIC APPLICATIONS” (BioTheryX, Inc., priority 2021, published 2024)

Legend:
Assay type in all cases: cell-based
Lovo (G13D) cells = test: Cell viability assay (CELLTITER-GLO), Lovo cells; conditions: Homo sapiens, 72 h, Inhibition of cancerous cells, 3 days incubation, luminescence
Procedure: (§1) AsPC-1, H358, and SW48 cells were cultured in RPMI 1640 media supplemented with 10% fetal bovine serum, streptomycin, and penicillin. Lovo and SW480 cells were cultured in DMEM media supplemented with 10% fetal bovine serum, streptomycin, and penicillin. The cell lines were plated in their respective medium supplemented with 2.5% fetal bovine serum, streptomycin, and penicillin. All cell lines were plated in white walled 96-well plates at 2,000 cells/well or 384-well plates at 500 cells/well, except Lovo, which were plated at 4,000 or 1,000 cells/well, respectively. The cells were incubated in DMSO (control) or a compound for 3 days at 37° C. under 5% CO2. A CELLTITER-GLO® reagent ([…] was then added to each well. After a 10 min incubation with shaking, luminescence was measured using an ENVISION® multimode plate reader. IC50 values are summarized in Table 1.

SW480 (G12V) cells = test: Cell viability assay (CELLTITER-GLO), SW480 cells; conditions: Homo sapiens, 72 h, Inhibition of cancerous cells, 3 days incubation, luminescence
Procedure: as §1

SW48 (wt) cells = test: Cell viability assay (CELLTITER-GLO), SW48 cells; conditions: Homo sapiens, 72 h, Inhibition of cancerous cells, 3 days incubation, luminescence
Procedure: as §1

H358 (G12C) cells = test: Cell viability assay (CELLTITER-GLO), H358 cells; conditions: Homo sapiens, NCI-H358, 72 h, Inhibition of cancerous cells, 3 days incubation, luminescence
Procedure: as §1

AsPC-1 (G12D) cells = test: Cell viability assay (CELLTITER-GLO), AsPC-1 cells; conditions: Homo sapiens, ASPC1, 72 h, Inhibition of cancerous cells, 3 days incubation, luminescence
Procedure: as §1

IC50 (Lovo (G13D) cells) [µM] | IC50 (SW480 (G12V) cells) [µM] | IC50 (SW48 (wt) cells) [µM] | IC50 (H358 (G12C) cells) [µM] | IC50 (AsPC-1 (G12D) cells) [µM] | Structure (SMILES)
1.1 | 0.55 | 0.82 | 1.2 | 2 | CNCc1ccccc1-c1csc(C(C)Nc2nc(C)nc3cc(OCCCCCCCN4CCC(C(F)(F)F)CC4)c(OC)cc23)c1 (stereo in doubt) [Compound A66, (R)-6-Methoxy-2-methyl-N-(1-(4-(2-((methylamino)methyl)phenyl)thiophen-2-yl)ethyl)-7-((7-(4-(trifluoromethyl)piperidin-1-yl)heptyl)oxy)quinazolin-4-amine]
– | – | – | – | 3.1 | CNCc1ccccc1-c1csc([C@H](C)Nc2nc(C)nc3cc(OCCCCCCC(C)(C)C)c(OC)cc23)c1 [Compound A59, (S)-7-((7,7-Dimethyloctyl)oxy)-6-methoxy-2-methyl-N-(1-(4-(2-((methylamino)-methyl)phenyl)thiophen-2-yl)ethyl)quinazolin-4-amine]
0.24 | 0.25 | 0.17 | 0.53 | 0.51 | CNCc1ccccc1-c1csc([C@@H](C)Nc2nc(C)nc3cc(OCCCCCCCC4CCC(c5ccccc5)CC4)c(OC)cc23)c1 (stereo partly drawn) [Compound A60, (R)-6-Methoxy-2-methyl-N-(1-(4-(2-((methylamino)methyl)phenyl)thiophen-2-yl)ethyl)-7-((7-(4-phenylcyclohexyl)heptyl)oxy)quinazolin-4-amine]
0.45 | 0.46 | 0.68 | 1.4 | 1.1 | CNCc1ccccc1-c1csc([C@@H](C)Nc2nc(C)nc3cc(OCCCCCCCN4CCN(C(C)=O)CC4)c(OC)cc23)c1 [Compound A64, (R)-1-(4-(7-((6-Methoxy-2-methyl-4-((1-(4-(2-((methylamino)methyl)phenyl)-thiophen-2-yl)ethyl)amino)quinazolin-7-yl)oxy)heptyl)piperazin-1-yl)ethan-1-one]
0.34 | 0.38 | 0.53 | 1.1 | 0.68 | CNCc1ccccc1-c1csc([C@H](C)Nc2nc(C)nc3cc(OCCCCCCCN4CCN(C(C)=O)CC4)c(OC)cc23)c1 [Compound A65, (S)-1-(4-(7-((6-Methoxy-2-methyl-4-((1-(4-(2-((methylamino)methyl)phenyl)-thiophen-2-yl)ethyl)amino)quinazolin-7-yl)oxy)heptyl)piperazin-1-yl)ethan-1-one]
0.54 | 0.44 | 0.53 | 1.2 | 0.59 | CNCc1ccccc1-c1csc([C@@H](C)Nc2nc(C)nc3cc(OCCCCCCCN4CCC(C(F)(F)F)CC4)c(OC)cc23)c1 [Compound A67, (R)-6-Methoxy-2-methyl-N-(1-(4-(2-((methylamino)methyl)phenyl)thiophen-2-yl)ethyl)-7-((7-(4-(trifluoromethyl)piperidin-1-yl)heptyl)oxy)quinazolin-4-amine]
0.36 | 0.36 | 0.55 | 0.65 | 1.5 | CNCc1ccccc1-c1csc([C@@H](C)Nc2nc(C)nc3cc(OCCCCCCC(=O)N4CCCCC4)c(OC)cc23)c1 [Compound A68, (R)-7-((6-Methoxy-2-methyl-4-((1-(4-(2-((methylamino)methyl)phenyl)thiophen-2-yl)ethyl)amino)quinazolin-7-yl)oxy)-1-(piperidin-1-yl)heptan-1-one]
0.72 | 0.41 | 0.66 | 0.93 | 2 | CNCc1ccccc1-c1csc([C@H](C)Nc2nc(C)nc3cc(OCCCCCCC(=O)N4CCCCC4)c(OC)cc23)c1 [Compound A69, (S)-7-((6-Methoxy-2-methyl-4-((1-(4-(2-((methylamino)methyl)phenyl)thiophen-2-yl)ethyl)amino)quinazolin-7-yl)oxy)-1-(piperidin-1-yl)heptan-1-one]

The next lines start with the compound.

Structure (SMILES) | IC50 (Lovo (G13D) cells) [µM] | IC50 (SW480 (G12V) cells) [µM] | IC50 (SW48 (wt) cells) [µM] | IC50 (H358 (G12C) cells) [µM] | IC50 (AsPC-1 (G12D) cells) [µM]
CNCc1ccccc1-c1csc([C@@H](C)Nc2nc(C)nc3cc(OCCC(C)(C)C)c(OC)cc23)c1 [Compound A62, (R)-7-(3,3-Dimethylbutoxy)-6-methoxy-2-methyl-N-(1-(4-(2-((methylamino)-methyl)phenyl)thiophen-2-yl)ethyl)quinazolin-4-amine] | 0.5 | 0.45 | 0.53 | 1.3 | 1.1
CNCc1ccccc1-c1csc([C@H](C)Nc2nc(C)nc3cc(OCCC(C)(C)C)c(OC)cc23)c1 [Compound A63, (S)-7-(3,3-Dimethylbutoxy)-6-methoxy-2-methyl-N-(1-(4-(2-((methylamino)-methyl)phenyl)thiophen-2-yl)ethyl)quinazolin-4-amine] | 0.42 | 0.46 | 0.53 | 1.1 | 1
COc1cc2c(N[C@H](C)c3cccc(Br)c3)nc(C)nc2cc1OCCCCCCCNCCC(F)(F)F [Compound A70, (R)—N-(1-(3-Bromophenyl)ethyl)-6-methoxy-2-methyl-7-((7-((3,3,3-trifluoro-propyl)amino)heptyl)oxy)quinazolin-4-amine] | 0.5 | 0.93 | 0.98 | 1.4 | 1.3
COc1cc2c(N[C@H](C)c3cccc(Br)c3)nc(C)nc2cc1OCCCCCCCN1CCC2(CCNCC2)CC1 [Compound A71, (R)-7-((7-(3,9-Diazaspiro[5.5]undecan-3-yl)heptyl)oxy)-N-(1-(3-bromophenyl)-ethyl)-6-methoxy-2-methylquinazolin-4-amine] | 1.4 | 1.5 | 1.4 | 2.8 | 2.7
COc1cc2c(N[C@H](C)c3cccc(Br)c3)nc(C)nc2cc1OCCCCCCCN1CCC2(CC1)CCN(C(=O)OC(C)(C)C)CC2 [Compound A72, Tert-butyl (R)-9-(7-((4-((1-(3-bromophenyl)ethyl)amino)-6-methoxy-2-methyl-quinazolin-7-yl)oxy)heptyl)-3,9-diazaspiro[5.5]undecane-3-carboxylate] | 0.39 | 0.48 | 0.64 | 1.1 | 1
COc1cc2c(N[C@H](C)c3cccc(Br)c3)nc(C)nc2cc1OCCCCc1ccncc1 [Compound A73, (R)—N-(1-(3-Bromophenyl)ethyl)-6-methoxy-2-methyl-7-(4-(pyridin-4-yl)-butoxy)quinazolin-4-amine] | 1.4 | 1 | 4.1 | 2.6 | –
COc1cc2c(N[C@H](C)c3cccc(Br)c3)nc(C)nc2cc1OCCCCCCCN1C(C)(C)CCCC1(C)C [Compound A74, (R)—N-(1-(3-Bromophenyl)ethyl)-6-methoxy-2-methyl-7-((7-(2,2,6,6-tetramethyl-piperidin-1-yl)heptyl)oxy)quinazolin-4-amine] | 0.34 | 0.42 | 0.56 | 0.65 | –
COc1cc2c(N[C@H](C)c3cccc(Br)c3)nc(C)nc2cc1OCCCCCCCN1CCOCC1 [Compound A75, (R)—N-(1-(3-Bromophenyl)ethyl)-6-methoxy-2-methyl-7-((7-morpholinoheptyl)-oxy)quinazolin-4-amine] | 0.25 | 0.59 | 0.66 | 0.73 | –
COc1cc2c(N[C@H](C)c3cccc(Br)c3)nc(C)nc2cc1OCCCCCCCC(=O)N[C@H]1CCC(=O)NC1=O [Compound A77, 8-((4-(((R)-1-(3-Bromophenyl)ethyl)amino)-6-methoxy-2-methylquinazolin-7-yl)oxy)-N—((S)-2,6-dioxopiperidin-3-yl)octanamide] | 2.9 | 3.9 | 5.1 | 6.7 | –
COc1cc2nc(C)nc(N[C@H](C)c3cccc(Br)c3)c2cc1OC [reference compound] | 2.5 | 3.4 | 3.6 | 3.2 | 5.1
CNCc1ccccc1-c1csc([C@@H](C)Nc2nc(C)nc3cc(OC)c(OC)cc23)c1 [reference compound] | 0.69 | 1 | 1.3 | 1.7 | 3.5
COc1cc2nc(C)nc(N[C@H](C)c3cc(N)cc(C(F)(F)F)c3)c2cc1OC [reference compound] | > 10 | > 10 | > 10 | > 10 | > 10
COc1cc2nc(C)nc(N[C@H](C)c3cccc(C(F)(F)CO)c3)c2cc1OC [reference compound] | > 10 | > 10 | > 10 | > 10 | > 10
